Laboratory results reported in patent publication US20210113501A1, “METHOD OF ADMINISTERING BETA-HYDROXY-BETA-METHYLBUTYRATE (HMB)” (Metabolic Technologies, Inc., priority 2009, published 2021).

What was measured:
[1] = cited from earlier work
[2] = test system: protein degradation in muscle; test: Urinary 3-methylhistidine to creatinine ratio after an acute exercise bout; assay type: in vivo, human
Protocol: Subjects: We conducted a study at the Iowa State University Health and Human Performance Laboratory; this study was approved by the Iowa State University Institutional Review Board, and was registered at ClinicalTrials.gov (NCT01150526). We recruited 12 men and 13 women between the ages of 20 and 36 from the Iowa State University community and surrounding area.
Treatments: The experimental design is depicted in FIG. 8.
Five treatments were administered as follows: Treatment 1: Placebo. This group received a placebo capsule and a placebo syringe dosage at each dosage administration. Treatment 2: CaHMB pre-exercise. This group received a CaHMB capsule and a placebo syringe dosage 30 min prior to the acute exercise bout. The remaining additional dosages during the study consisted of one placebo capsule and one placebo syringe dosage. Treatment 3: HMB-acid gel pre-exercise. This group received a placebo capsule and a syringe dosage of HMB-acid gel 30 min prior to the acute exercise bout. The remaining additional dosages during the study consisted of one placebo capsule and one placebo syringe dosage. Treatment 4: CaHMB pre- and post-exercise. This group received a CaHMB capsule and a placebo syringe dosage at all administration times during the study. Treatment 5: HMB-acid gel pre- and post-exercise. This group received a syringe dosage of HMB-acid gel and one placebo capsule at all administration times during the study.
To blind the treatments to both the researchers and subjects, each subject took a capsule and syringe dosage of supplement at each administration. The capsules contained either one gram of calcium lactate (Placebo) or one gram of calcium β-hydroxy-β-methylbutryate (CaHMB). The syringe dosages were formulated to be similar in taste and appearance and contained either 0.8 g of corn syrup (Placebo) or 0.8 g of β-hydroxy-β-methylbutryate free acid, the same amount of HMB as in the capsule dosage. The 3 daily doses provided the same total HMB dosage (2.4 g as calcium HMB in the capsules or 2.4 g as HMB free acid in the syringes).
Eccentric Exercise Bout: Subjects refrained from vigorous exercise for three days before reporting to the laboratory. All subjects were studied after an overnight fast. […] Subjects then consumed their assigned supplement and 30 minutes later the eccentric exercise session was performed. The exercise consisted of 50 maximal effort contractions of knee extensors while attempting to resist the Biodex lever arm as it moves the knee joint from full extension to 90 degrees flexion; this is similar to letting a heavy weight down slowly while in a seated position. Each contraction lasted about 2 seconds and 12 seconds were allowed between contractions. This protocol was performed on the right leg followed by the left leg. The subjects received 2 more daily dosages of treatment (placebo or HMB) with instructions to take the dosages at lunch and dinner. For the next 4 days the subjects returned to the laboratory fasted each morning, had blood taken and urine collected and then consumed the morning dosage of their supplement. The subjects were again given the 2 remaining daily supplement dosages with instructions to take them at lunch and dinner.
Serum and Urine Samples: A fasting blood sample was taken from a superficial forearm vein each morning when the subjects reported to the laboratory for testing. Additionally a clean catch urine sample was collected at this time. Serum CPK was analyzed by a commercial laboratory (Quest Diagnostics, Madison N.J.). Urine 3-Methylhistidine (3MH) was analyzed by a previously published GC/MS method (9). Urinary creatinine was analyzed by colorimetric assay (Cayman Chemical Company, Ann Arbor, Mich.). The urinary 3MH data was normalized to urinary creatinine and expressed as 3MH:creatinine ratio, μmol:mg.
Statistics: Data were analyzed using the mixed model procedure in Statistical Analysis System for Windows (Release 9.1.3, SAS Institute, Cary, N.C.). […]

Structure (SMILES): CC(C)(O)CC(=O)[O-].CC(C)(O)CC(=O)[O-].[Ca+2] [CaHMB, calcium β-hydroxy-β-methylbutryate, reference compound]
- time of peak plasma HMB levels after ingestion ([1]; depending upon the dosage): 60 to 120 min
- plasma peak levels, 3 grams versus 1 gram dose ([1]; oral, Vukovich et al): 3 times
- time to peak plasma levels ([1]; typical 1 gram dosage): 2 h
- 3MH:Cr ([2]; Baseline, dosed pre- and post exercise (Treatments 4, 5)): 0.205 ± 0.025 µmol/mg
- 3MH:Cr ([2]; Baseline, dosed pre-exercise only (Treatments 2, 3)): 0.164 ± 0.037 µmol/mg
- 3MH:Cr ([2]; at 24 h, dosed pre- and post exercise (Treatments 4, 5)): 0.203 ± 0.039 µmol/mg
- 3MH:Cr ([2]; at 24 h, dosed pre-exercise only (Treatments 2, 3)): 0.190 ± 0.027 µmol/mg
- 3MH:Cr ([2]; at 48 h, dosed pre- and post exercise (Treatments 4, 5)): 0.220 ± 0.027 µmol/mg
- 3MH:Cr ([2]; at 48 h, dosed pre-exercise only (Treatments 2, 3)): 0.240 ± 0.052 µmol/mg
- 3MH:Cr ([2]; at 72 h, dosed pre- and post exercise (Treatments 4, 5)): 0.231 ± 0.037 µmol/mg
- 3MH:Cr ([2]; at 72 h, dosed pre-exercise only (Treatments 2, 3)): 0.204 ± 0.058 µmol/mg
- 3MH:Cr ([2]; at 96 h, dosed pre- and post exercise (Treatments 4, 5)): 0.269 ± 0.038 µmol/mg
- 3MH:Cr ([2]; at 96 h, dosed pre-exercise only (Treatments 2, 3)): 0.187 ± 0.029 µmol/mg
